Measured values from ChEMBL document CHEMBL4251581, “Synthesis and antimycobacterial activity of triterpeni≿ A-ring azepanes” (Eur J Med Chem, 2018).
Values after ≈ are worked out from the molar mass of the structure shown.

Tests used:
Assay type in all cases: functional
[1] = test system: Mycobacterium tuberculosis; test: Antimycobacterial activity against rifampicin-resistant Mycobacterium tuberculosis H37Rv ATCC 35828 RIF-R2
[2] = test system: Mycobacterium tuberculosis; test: Antimycobacterial activity against isoniazid-resistant Mycobacterium tuberculosis H37Rv INH-R1 harboring katG Y155 truncated mutant
[3] = test system: Mycobacterium tuberculosis; test: Antimycobacterial activity against isoniazid-resistant Mycobacterium tuberculosis H37Rv ATCC 35822 INH-R2
[4] = test system: Mycobacterium tuberculosis; test: Antimycobacterial activity against rifampicin-resistant Mycobacterium tuberculosis H37Rv RIF-R1 harboring rpoB S522L mutant
[5] = test system: Mycobacterium tuberculosis; test: Antimycobacterial activity against fluoroquinolone-resistant Mycobacterium tuberculosis H37Rv FQ-R1 harboring unidentified mutation
[6] = test system: Mycobacterium tuberculosis; test: Antimycobacterial activity against ethambutol-resistant Mycobacterium tuberculosis H37Rv ATCC 35837
[7] = test system: Mycobacterium tuberculosis; test: Antimycobacterial activity against kanamycin-resistant Mycobacterium tuberculosis H37Rv ATCC 3582
[8] = test system: Mycobacterium tuberculosis; test: Antimycobacterial activity against streptomycin-resistant Mycobacterium tuberculosis H37Rv ATCC 35820
[9] = test system: Mycobacterium tuberculosis; test: Antimycobacterial activity against isoniazid-resistant Mycobacterium tuberculosis H37Rv ATCC 35822
[10] = test system: Mycobacterium tuberculosis; test: Antimycobacterial activity against ethionamide-resistant Mycobacterium tuberculosis H37Rv ATCC 35830
[11] = test system: Mycobacterium tuberculosis; test: Antimycobacterial activity against rifampicin-resistant Mycobacterium tuberculosis H37Rv ATCC 35828
[12] = test system: Mycobacterium tuberculosis; test: Antimycobacterial activity against ofloxacin-resistant Mycobacterium tuberculosis H37Rv ATCC 35828
[13] = test system: Mycobacterium tuberculosis; test: Antimycobacterial activity against streptomycin-resistant Mycobacterium tuberculosis H37Rv ATCC 35820 by microplate alamar blue assay

| SMILES | MIC [1] [µg/mL] | MIC [2] [µg/mL] | MIC [3] [µg/mL] | MIC [4] [µg/mL] | MIC [5] [µg/mL] | MIC [9] [µg/mL] | further results |
| --- | --- | --- | --- | --- | --- | --- | --- |
| CC1(C)CC[C@]2(COC(=O)/C=C/c3ccccc3)CC[C@]3(C)C(=CC[C@@H]4[C@@]5(C)CCCNC(C)(C)[C@@H]5CC[C@]43C)[C@H]2C1 | 14 (≈ 24.5 µM) | 13 (≈ 22.7 µM) | 12 (≈ 21 µM) | 7.4 (≈ 12.9 µM) | 13 (≈ 22.7 µM) | – | – |
| C=C(C)[C@@H]1CC[C@]2(CO)CC[C@]3(C)[C@H](CC[C@@H]4[C@@]5(C)CCCNC(C)(C)[C@@H]5CC[C@]43C)[C@@H]12 | – | – | – | – | – | 5 (≈ 11.3 µM) | MIC [6]: 5 µg/mL (≈ 11.3 µM); MIC [7]: 10 µg/mL (≈ 22.6 µM); MIC [8]: 5 µg/mL (≈ 11.3 µM); MIC [10]: 10 µg/mL (≈ 22.6 µM) |
| COc1ccc(/C=C/C(=O)OC[C@]23CC[C@@H](C)[C@H](C)[C@@H]2C2=CC[C@@H]4[C@@]5(C)CCCNC(C)(C)[C@@H]5CC[C@@]4(C)[C@]2(C)CC3)cc1 | 21 (≈ 34.9 µM) | 20 (≈ 33.2 µM) | 17 (≈ 28.2 µM) | 24 (≈ 39.9 µM) | 20 (≈ 33.2 µM) | – | – |
| C[C@H]1[C@H](C)CC[C@]2(CO)CC[C@]3(C)C(=CC[C@@H]4[C@@]5(C)CCCNC(C)(C)[C@@H]5CC[C@]43C)[C@@H]12 | 51 (≈ 115 µM) | 37 (≈ 83.8 µM) | 39 (≈ 88.3 µM) | 29 (≈ 65.6 µM) | 34 (≈ 77 µM) | – | – |
| C=C(C)[C@@H]1CC[C@]2(COC(=O)CCC(=O)O)CC[C@]3(C)[C@H](CC[C@@H]4[C@@]5(C)CCCNC(C)(C)[C@@H]5CC[C@]43C)[C@@H]12 | – | – | – | – | – | 12 (≈ 22.1 µM) | MIC [11]: 6 µg/mL (≈ 11.1 µM); MIC [12]: 6 µg/mL (≈ 11.1 µM) |
| C[C@H]1[C@H](C)CC[C@]2(COC(=O)/C=C/c3ccccc3)CC[C@]3(C)C(=CC[C@@H]4[C@@]5(C)CCCNC(C)(C)[C@@H]5CC[C@]43C)[C@@H]12 | 24 (≈ 42 µM) | 28 (≈ 49 µM) | 15 (≈ 26.2 µM) | 19 (≈ 33.2 µM) | 27 (≈ 47.2 µM) | – | – |
| C=C(C)[C@@H]1CC[C@]2(COC(=O)/C=C/c3ccccc3)CC[C@]3(C)[C@H](CC[C@@H]4[C@@]5(C)CCCNC(C)(C)[C@@H]5CC[C@]43C)[C@@H]12 | – | – | – | – | – | 4 (≈ 6.99 µM) | MIC [11]: 1 µg/mL (≈ 1.75 µM); MIC [12]: 1 µg/mL (≈ 1.75 µM) |
| CC1(C)CC[C@]2(CO)CC[C@]3(C)C(=CC[C@@H]4[C@@]5(C)CCCNC(C)(C)[C@@H]5CC[C@]43C)[C@H]2C1 | 69 (≈ 156 µM) | 34 (≈ 77 µM) | 15 (≈ 34 µM) | 39 (≈ 88.3 µM) | 44 (≈ 99.6 µM) | – | – |
| NNC(=O)c1ccncc1 [ISONIAZID] | 1.3 (≈ 9.48 µM) | >200 | 1.4 (≈ 10.2 µM) | 1.2 (≈ 8.75 µM) | 29 (≈ 211 µM) | – | MIC [11]: 0.02 µg/mL (≈ 0.146 µM) |
| CO[C@H]1/C=C/O[C@@]2(C)Oc3c(C)c(O)c4c(O)c(c(/C=N/N5CCN(C)CC5)c(O)c4c3C2=O)NC(=O)/C(C)=C\C=C\[C@H](C)[C@H](O)[C@@H](C)[C@@H](O)[C@@H](C)[C@H](OC(C)=O)[C@@H]1C [RIFAMPIN] | 0.62 (≈ 0.753 µM) | 0.015 (≈ 0.0182 µM) | 100 (≈ 122 µM) | 0.29 (≈ 0.352 µM) | 0.37 (≈ 0.45 µM) | 0.05 (≈ 0.0608 µM) | MIC [12]: 0.195 µg/mL (≈ 0.237 µM) |
| C[C@H]1[C@H](C)CC[C@]2(C(=O)O)CC[C@]3(C)C(=CC[C@@H]4[C@@]5(C)CC[C@H](O)C(C)(C)[C@@H]5CC[C@]43C)[C@H]12 [URSOLIC ACID] | – | – | – | – | – | – | MIC [13]: 12.5 µg/mL (≈ 27.4 µM) |
